These results are taken from US9012403B2, “Peptides as active agents to stabilize biological barriers” (XiberScience GmbH, priority 2010, dated 2015).

Marks after values point to notes of the source that are not given here.

One assay relates to LPS induced lung injury. Briefly: LPS induced lung injury, bronchoalveolar lavage. The assay is classed as in vivo. The note with it: mice; for effect on barrier function in the LPS-inhalation model (neutrophils and albumin in BALF): equal in groups treated intraperitoneally and intratracheally; for counts of neutrophils in the BALF (mean +/ SD) / albumine content of BALFs (mean +/ SD): n = 20. The procedure: Male C57Bl/6 Mice (Charles River, Germany) were kept at the animal facility of the Medical University of Vienna, feed with standard diet and water was provided ad libitum. All interventions were performed according to the guide lines of AAALAC (Association for Assessment and Accreditation of Laboratory Animal Care). All experiment were approved by the Ethic committee of the Medical University of Vienna. Mice were anesthetized with isoflouran and treated with 100 ng of LPS (E. coli O55:B5, Sigma Aldrich) intranasally. XIB1-a or XIB1-b was applied either intra-peritoneally (2×2 mg/kg) or via inhalation (2×4 mg/kg), first application was performed concomitantly with LPS administration, the second application was performed 1 h after the LPS inhalation.
The trachea was exposed through a midline incision and canulated with a sterile 20-gauge catheter (BD Venflon™, Becton Dickinson Infusion Therapy, Helsingborg, Sweden). Bilateral broncho-alveolar lavage fluid (BALF) was gained by instilling two 0.5 ml aliquots of sterile saline. Approximately 0.9-1 ml BALF was retrieved per mouse. Total cell numbers were counted from each sample using a hemo-cytometer (Türck chamber), BALF differential cell counts were done on cytospin preparations stained with Giemsa. For protein measurements, BALF was diluted 1:2 in buffer containing 300 mM NaCl, 30 mM Tris, 2 mM MgCl2, 2 mM CaCl2, and Pepstatin A, Leupeptin and Aprotinin (all 20 ng/ml; pH 7.4). Protein levels in BALF were measured using the BCA protein kit according to the manufacturer's instructions (Pierce, Rockford, Ill.).
In addition, the same set-up as described above was used for comparing the impact of XIB1-b compared to Bβ15-42 (PLoS ONE (2009), 4(4): e5391), a peptide derived from fibrin having the sequence […] (SEQ ID NO: 41). Bβ15-42 was added in the same manner as XIB1-b. Again, protein content and cell count of BALF was measured.

The test system of assay [1] is Ventilator-Induced Lung Injury (VILI). Briefly: Ventilator-induced lung injury (VILI) after LPS pre-challenge. As to conditions: mice. The class given is in vivo. The procedure: Experiments were performed with healthy C57BL/6 (aged 8-10 weeks, with weights ranging from 19-25 g). All interventions were performed according to the guide lines of AAALAC. All experiment were approved by the Ethic committee of the University of Amsterdam.
Mice were challenged with LPS (dosage: 50 μg per mouse) (or saline), via intranasal injection 2 h before initiation of mechanical ventilation, to induce lung injury.
XIB1-1b (or random peptide) was administered i.v. 10 min before start of mechanical ventilation (dosage: 4 mg/kg loading dose, followed administration i.v. injections 1 mg/kg/h.
A Y-tube connector with 1.0 mm outer diameter and 0.6 mm inner diameter was surgically inserted into the trachea under general anesthesia. Mice were placed in a supine position and connected to a ventilator. Mice were pressure-controlled ventilated with either an inspiratory pressure of 10 cm H2O (resulting in VT˜7.5 mL/kg; low VT, LVT) or an inspiratory pressure of 18 cm H2O (resulting in VT˜15 mL/kg; high VT, HVT). Positive end-expiratory pressure (PEEP) is set at 2 cm H2O with both MV-strategies. The fraction of inspired oxygen was kept at 0.5 throughout the experiment. The inspiration to expiration ratio was kept at 1:1 throughout the experiment.
BALF was obtained by instilling 3 times 0.5 mL aliquots of saline by a 22-gauge Abbocath-T catheter (Abbott, Sligo, Ireland) into the trachea. Approximately, 1.0 mL of BALF was retrieved per mouse and cell counts were determined using a hemacytometer (Beckman Coulter, Fullerton, Calif.). Subsequently, differential counts were done on cytospin preparations stained with a modified Giemsa stain, Diff-Quick (Dade Behring AG, Düdingen, Switzerland). Supernatant was stored at −80° C.
Total protein levels in BALF are determined using a Bradford Protein Assay Kit (OZ Biosciences, Marseille, France) according to manufacturers' instructions with bovine serum albumin as standard. Mouse IgM was determined by ELISA by using anti-Mouse IgM sensitized 96-strip micro-well plates according to manufacturers' instructions (IMMUNO-TEK kit from ZeptoMetrix).

[2] abbreviates: 6 h after LPS administration, intraperitoneal application (2×2 mg/kg).
Where [3] appears, read: 6 h after LPS administration, intratracheal application.
[4] abbreviates: LPS + high tidal volume ventilation (LPS-HTV), i.v. 4 mg/kg loading, then 1 mg/kg/h.
[5] abbreviates: LPS + low tidal volume ventilation (LPS+LTV), compared to scrambled peptide.
Where [6] appears, read: LPS + low tidal volume ventilation (LPS+LTV), protocol caused no pronounced increase.

Turning to “GRRPGGASGG (/note=“Description of artificial sequence cingulin-derived peptide XIB1-a”)”, in the assay on LPS induced lung injury, the “effect on barrier function in the LPS-inhalation model (neutrophils and albumin in BALF)” value is listed as “beneficial effect”.

Turning to “GRRPLGGISGG (/note=“Description of artificial sequence cingulin-derived peptide XIB1-b”)”, the “counts of neutrophils in the BALF (mean +/ SD)” value (from here on “counts … (mean +/ SD)”) in the assay on LPS induced lung injury (comparison with Bβ15-42 (Table 6), 6 h after LPS, intratracheal plus intraperitoneal application) is 15 +/− 15 neutrophils/ml (× 10^3). Further, in the assay on LPS induced lung injury (setting [2]), the “albumine content of BALFs (mean +/ SD)” value is 120 ± 12 µg/mL and the “counts … (mean +/ SD)” value is on record as 25 +/− 22 neutrophils/ml (× 10^3). Further, in the assay with LPS induced lung injury (setting [3]), the “albumine content of BALFs (mean +/ SD)” value was found to be 98 ± 20 µg/mL and the “counts … (mean +/ SD)” value was 28 +/− 23 neutrophils/ml (× 10^3). In addition, the “effect on barrier function in the LPS-inhalation model (neutrophils and albumin in BALF)” value with LPS induced lung injury was “beneficial effect”. Also, in assay [1] (setting [4]), the “IgM content in the BALF” value is “significant decrease”, the “neutrophil count in the BALF” value is reported as “significant decrease”, the “total cell count in the BALF” value was “significant decrease” and the “total protein content in the BALF” value was “significant decrease”. In addition, in assay [1] (setting [5]), the “neutrophil counts in the BALF” value was “significantly reduced” and the “total cell counts in the BALF” value was “significantly reduced”. Besides, in assay [1] (setting [6]), the “IgM content in the BALF” value is recorded as “no effect” and the “total protein content in the BALF” value is given as “no effect”.
